Experimental data taken from patent US20190091494A1, “PEPTIDES FOR HAIR GROWTH” (Clinical Stem Cells Pty Ltd, priority 2016, published 2019).
Values joined by “and” are separate entries in the source; they are usually repeats but may differ in a detail not shown here. Equal entries are not always repeated. “Also recorded” adds a separate entry of the source. Where no end group is shown, it is not given here. [ ]: non-standard residue; d: D form. pGlu = O=C1CC[C@@H](C(=O)O)N1

Tests used:
[1] = test system: active hair follicles; conditions: topically applied to rodent skin; cited from earlier work
[2] = test system: inactive hair follicles; test: Inventor's observation: activation of inactive hair follicles; conditions: in vivo
[3] = test system: hair follicles; conditions: active hair follicles that entered catagen; US 2011/0281802; cited from earlier work
[4] = test system: hair follicles; test: Clinical trial using topical zinc thymulin: number of active hair follicles in a set scalp area; type: in vivo, Human
Procedure: The area near the marker affected by hair loss was photographed using a Samsung Galaxy Note 4 camera with settings F2.2, focal length 31 mm, LED flash and the number of active hair follicles in a set area were quantified.
The aqueous spray formulation prepared in Example 2 was administered topically to the scalp of the trial subjects twice daily to the hair loss region(s) of the scalp. The formulation used for subjects 1, 2 and 3 contained 0.00005% LKKTETQ peptide (molecular weight 846.48).
At 16 weeks for subject 1 and 12 weeks for subjects 2, 3 and 4, the number of active hair follicles in the set area was quantified again. Multiple set areas of hair loss were evaluated for trial subjects 1, 2 and 3. These areas are designated “a” and “b” in Table 2 and Table 3.

[5] = test system: adult subjects with a diagnosis of AGA; test: Further clinical trial, numbered visual analog scale (VAS) global hair assessment; type: in vivo, human; conditions: for VAS after treatment: scale 0-10, one value per subject 1-18, 0.0005% spray twice daily, 4-10 months
Source text: (§1) Eighteen consecutive adult subjects were recruited, 17 males and 1 female, age range 35-90 years (mean 55.4, SD 13.3) with a diagnosis of AGA, Norwood classification 2-7, and hair loss duration range of 3-40 years (mean 15.8, SD 9.6). The trial duration for each subject ranged from 4-10 months. The test compound ZT was synthesized by standard Fmoc peptide protocols and administered in water based topical spray to the scalp. Baseline and after treatment images for hair growth were graded by two blinded assessors using two validated scales: 1. numerical visual analog scale (VAS) for global assessment 2. hair growth index (HGI) of images under higher magnification for percentage changes of vellus, intermediate and terminal hair.
(§2) Male and female adult subjects with a diagnosis of AGA were invited to participate in the study. Each subject provided written informed consent except the subject who gave verbal consent as they were unable to provide written consent due to arthritis of the hand. The study was conducted in compliance with the Declaration of Helsinki, International Conference on Harmonization Good Clinical Practice guidelines. Eighteen consecutive adult subjects were recruited (17 males and 1 […]) with an age range 35-90 years (mean 55.4, SD 13.3) with a diagnosis of AGA Norwood-Hamilton classification 2-7, and with a hair loss history ranging from 3-40 years (mean 15.8, SD 9.6). Entry time points of the volunteers occurred over 6 months with the trial completed at the same endpoint resulting in duration of treatment for subjects in the trial ranging from 4-10 months.
(§3) The product given to subjects was a 100 ml spray bottle containing 0.0005% ZT as the active test agent. Subjects were instructed to spray 1-2 ml of solution, twice daily, and rub into the scalp. The spray bottle solution was to be kept away from direct sunlight and heat. Subjects were resupplied with fresh solutions every 6-8 weeks during the trial.
(§4) Images were captured on a Samsung Galaxy Note 4 phone in high resolution (16 MB image) with flash, F 2.2 and focal length 31 mm. For assessment, baseline and after treatment images were de-identified, paired and randomly allocated with respect to left/right sides. Images were presented for analysis to assessors in Powerpoint format files on a 55 inch high resolution television screen. All images and original assessor scorecards were archived in PDF format for external reviewer confirmation.
1. Numbered visual analog scale (VAS) where the assessor gives a value between 0-10 of the image (0=total absence of hair, 10=full abundant hair) (Price, 2008).
(§5) Assessment was graded by two independent assessors in a single blind manner. Assessors underwent three training sessions over two weeks prior to the final evaluation.

[6] = test system: adult subjects with a diagnosis of AGA; test: Further clinical trial, Hair Growth Index (HGI) of magnified images; type: in vivo, human; conditions: for HGI adjusted score A (absent) after: raw % multiplied by 0; for HGI raw score % A (absent) after / HGI raw score % I (intermediate) after / HGI raw score % T (terminal) after / HGI raw score % V (vellus) after: per subject, after trial completion
Source text: as §1, §2, §3, §4
2. Hair Growth Index (HGI) that is a more in-depth scale of analysis where higher magnification of images can identify the four types of hair regrowth that are designated as absent, vellus, intermediate or terminal (Bernado, 2003). For each image these four growth stages are given percentage values that added together give a raw score total of 100%. Each percentage value for absent, vellus, intermediate, and terminal are multiplied by 0,1,2,3 respectively to yield a final adjusted score ranging from a possible minimum score of 0 (total absence of hair) to a maximum score of 300 (full terminal hair). Scores were pooled for paired t-test, and P<0.05 was established for significance.
as §5

[7] = test system: adult subjects with a diagnosis of AGA; test: Further clinical trial, safety: side effects and drug interaction; type: in vivo, human; conditions: listed as ZT
Source text: as §1, §2, §3

[8] = test system: scalp of subject #17; test: Fluorescence spectroscopy procedure of the scalp; type: in vivo, human; conditions: subject #17 (30 year hair loss); 6 pre-existing terminal hairs under visible white LED light
Source text: To confirm this effect subject #17 (30 year hair loss) underwent a fluorescence spectroscopy procedure of the scalp. […] Supporting evidence was seen when comparing the assessor pooled responses of ‘total absent hair’ where 65% (13/20) of subjects improved.

[9] = all 7 subject areas, 12-16 weeks
[10] = subject 4, 12 weeks, spray without LKKTETQ peptide

Substance: LKKTETQ [leucine-leucine-lysine-threonine-glutamic acid-threonine-glutamine, added at 0.00005% (amidated & acetylated) to the spray of subjects 1-3]
- hair growth [1]: promotes hair growth from existing active hair follicles

Substance: pyrGlu-Ala-Lys-Ser-Gln-Gly-Gly-Ser-Asn ([pGlu]AKSQGGSN) [thymulin, nonapeptide produced by the thymus gland, CAS 63958-90-7, reference compound]
- activation of inactive hair follicles [2]: does not significantly activate inactive hair follicles
- hair shaft formation [3]: inhibit hair shaft formation

Substance: zinc thymulin: zinc complex of amidated and acetylated thymulin H3CC(O)-Pyr-Glu-Ala-Lys-Ser-Gln-Gly-Gly-Ser-Asn-NH2; tested as 0.0005% water based topical spray (Ac-[pGlu]AKSQGGSN-NH2; also: zinc complex)
- Percentage increase in active hair follicles, Average increase [4, 9]: 80%
- Percentage increase in active hair follicles, Range [4, 9]: 6-200%
- Number of active hair follicles after treatment per cm^2 ([4]; subject 1 (areas a, b), 16 weeks, spray with LKKTETQ peptide): 21 per cm^2 and 24 per cm^2
- Number of active hair follicles after treatment ([4]; subject 1 (areas a, b), 16 weeks, twice daily topical 0.0005% spray also containing 0.00005% LKKTETQ peptide): 36 and 48
- Number of active hair follicles after treatment per cm^2 [4, 10]: 38 per cm^2
- Percentage increase in active hair follicles [4, 10]: 135%
- Number of active hair follicles after treatment ([4]; subject 4, 12 weeks, twice daily topical 0.0005% spray without LKKTETQ peptide): 40
- VAS hair assessment improvement ([5]; 11 subjects who completed at least 6 months of treatment, listed as ZT): significant growth
- VAS after treatment ([5]; Assessor #1): 6 (3×) and 8 (10×) and 9 (3×) and 7 (2×)
- VAS after treatment ([5]; Assessor #2): 6 (5×) and 8 (5×) and 7 (3×) and 4 and 9 (2×) and 5 (2×)
- VAS hair growth ([5]; total group (18 subjects) at the end of the trial): no significant growth
- assessor pooled responses of 'total absent hair' improved ([6]; 13/20 pooled responses): 65%
- HGI adjusted score A (absent) after ([6]; Assessor #1): 0
- HGI adjusted score A (absent) after ([6]; Assessor #2): 0
- HGI adjusted score I (intermediate) after ([6]; Assessor #2, raw % multiplied by 2, listed as ZT): 60 and 40
- average increase of intermediate type hairs ([6]; HGI assessment, at 6 months): 23%
- average increase of vellus type hairs ([6]; HGI assessment, at 6 months): 32%
- number of newly observed intermediate hairs in previous absent hair regions ([6]; HGI assessment, listed as ZT): significant increase; also recorded: highly significant increased number
- HGI raw score % A (absent) after ([6]; assessor A#1, listed as ZT): 50% (3×) and 40% (4×) and 15% and 20% (2×)
- HGI raw score % I (intermediate) after ([6]; assessor A#1, listed as ZT): 20% (2×) and 15% and 10% (2×) and 25% (5×)
- HGI raw score % T (terminal) after ([6]; assessor A#1, listed as ZT): 20% (2×) and 30% (3×) and 15% and 10% (2×) and 55% and 60%
- HGI raw score % V (vellus) after ([6]; assessor A#1, listed as ZT): 10% (3×) and 20% (2×) and 25% (3×) and 15% and 5%
- HGI raw score % A (absent) after ([6]; assessor A#2, listed as ZT): 20% and 30% (3×) and 10% (3×) and 40% (2×) and 50%
- HGI raw score % I (intermediate) after ([6]; assessor A#2, listed as ZT): 30% (6×) and 20% (4×)
- HGI raw score % T (terminal) after ([6]; assessor A#2, listed as ZT): 20% (4×) and 30% (2×) and 40% and 10% (2×) and 60%
- HGI raw score % V (vellus) after ([6]; assessor A#2, listed as ZT): 30% (3×) and 20% (3×) and 0% and 40% and 10% (2×)
- Melanogenesis ([6]; higher magnification images, several (older) subjects, listed as ZT): Melanogenesis was observed in several subjects; also recorded: clearly observed
- adverse systemic effects or local side effects (redness, scalp irritation) ([7]; 18 subjects, topical 0.0005% spray, total of 3,300 treatment days): no adverse systemic effects or local side effects of redness or scalp irritation; also recorded: no redness, scalp irritation or deterioration of hair color, quality or quantity
- side effects reported in the entire study ([7]; 18 test subjects, total of 111 months (~3,300 days), attributed to a non-active constituent (citric acid buffer)): Only one side effect; also recorded: only one side effect from a non-active constituent
- drug interaction with ZT ([7]; three subjects concurrently using minoxidil (N=2) and minoxidil/finasteride (N=1)): did not report any drug interaction; also recorded: no observable drug interaction
- additional developing vellus hairs revealed by spectroscopy [8]: 59
- activation of inactive hair follicles [2]: effective
